Data reported in the NIST ThermoML archive (doi:10.1016/j.jct.2011.11.014).
± gives the expanded uncertainty stated by the source.

Assay: mn = molality of the nth substance listed, in mol/kg
Conditions: 101.3 kPa, Liquid; for speed of sound: Sing-around technique in a fixed-path interferometer; for mass density: Vibrating tube method

COC(=O)CC(=O)[O-].[K+] [potassium 3-methoxy-3-oxopropanoate] + O
Conditions	mass density [kg/m3]	speed of sound [m/s]
288.15 K, m1 = 0.0128	1000.03 ± 0.14	1468.1 ± 2.2
288.15 K, m1 = 0.0148	1000.18 ± 0.13	1468.3 ± 2.2
288.15 K, m1 = 0.0189	1000.47 ± 0.13	1468.8 ± 2.2
288.15 K, m1 = 0.0253	1000.94 ± 0.13	1469.6 ± 2.2
288.15 K, m1 = 0.0316	1001.39 ± 0.13	1470.3 ± 2.2
288.15 K, m1 = 0.0444	1002.3 ± 0.13	1471.8 ± 2.2
288.15 K, m1 = 0.0512	1002.81 ± 0.13	1472.4 ± 2.2
288.15 K, m1 = 0.0637	1003.7 ± 0.13	1474 ± 2.2
288.15 K, m1 = 0.0836	1005.11 ± 0.14	1476 ± 2.2
288.15 K, m1 = 0.1286	1008.32 ± 0.14	1481.1 ± 2.2
288.15 K, m1 = 0.1868	1012.39 ± 0.14	1487.4 ± 2.2
288.15 K, m1 = 0.2644	1017.68 ± 0.14	1495.4 ± 2.2
288.15 K, m1 = 0.3285	1022.02 ± 0.14	1502.2 ± 2.2
288.15 K, m1 = 0.3591	1024 ± 0.14	1505 ± 2.2
293.15 K, m1 = 0.0128	999.122 ± 0.17	1484 ± 2.2
293.15 K, m1 = 0.0148	999.272 ± 0.14	1484.2 ± 2.2
293.15 K, m1 = 0.0189	999.553 ± 0.14	1484.7 ± 2.2
293.15 K, m1 = 0.0253	1000.02 ± 0.14	1485.4 ± 2.2
293.15 K, m1 = 0.0316	1000.47 ± 0.14	1486.1 ± 2.2
293.15 K, m1 = 0.0444	1001.37 ± 0.13	1487.4 ± 2.2
293.15 K, m1 = 0.0512	1001.87 ± 0.14	1488.2 ± 2.2
293.15 K, m1 = 0.0637	1002.74 ± 0.14	1489.5 ± 2.2
293.15 K, m1 = 0.0836	1004.14 ± 0.14	1491.5 ± 2.2
293.15 K, m1 = 0.1286	1007.31 ± 0.14	1496.2 ± 2.2
293.15 K, m1 = 0.1868	1011.34 ± 0.14	1502 ± 2.2
293.15 K, m1 = 0.2644	1016.57 ± 0.14	1509.6 ± 2.2
293.15 K, m1 = 0.3285	1020.84 ± 0.14	1516.1 ± 2.2
293.15 K, m1 = 0.3591	1022.81 ± 0.14	1518.6 ± 2.2
298.15 K, m1 = 0.0128	997.951 ± 0.16	1498.1 ± 2.2
298.15 K, m1 = 0.0148	998.099 ± 0.14	1498.4 ± 2.2
298.15 K, m1 = 0.0189	998.377 ± 0.14	1498.8 ± 2.2
298.15 K, m1 = 0.0253	998.84 ± 0.14	1499.4 ± 2.2
298.15 K, m1 = 0.0316	999.281 ± 0.14	1500.1 ± 2.2
298.15 K, m1 = 0.0444	1000.17 ± 0.14	1501.3 ± 2.2
298.15 K, m1 = 0.0512	1000.67 ± 0.14	1502 ± 2.2
298.15 K, m1 = 0.0637	1001.53 ± 0.14	1503.3 ± 2.2
298.15 K, m1 = 0.0836	1002.91 ± 0.14	1505.1 ± 2.2
298.15 K, m1 = 0.1286	1006.05 ± 0.14	1509.5 ± 2.2
298.15 K, m1 = 0.1868	1010.04 ± 0.14	1514.9 ± 2.2
298.15 K, m1 = 0.2644	1015.21 ± 0.14	1522.1 ± 2.2
298.15 K, m1 = 0.3285	1019.45 ± 0.14	1528 ± 2.2
298.15 K, m1 = 0.3591	1021.39 ± 0.14	1530.5 ± 2.2
303.15 K, m1 = 0.0128	996.543 ± 0.17	1510.4 ± 2.2
303.15 K, m1 = 0.0148	996.691 ± 0.14	1510.6 ± 2.2
303.15 K, m1 = 0.0189	996.967 ± 0.14	1511 ± 2.2
303.15 K, m1 = 0.0253	997.423 ± 0.14	1511.6 ± 2.2
303.15 K, m1 = 0.0316	997.862 ± 0.14	1512.2 ± 2.2
303.15 K, m1 = 0.0444	998.743 ± 0.14	1513.3 ± 2.2
303.15 K, m1 = 0.0512	999.236 ± 0.14	1514 ± 2.2
303.15 K, m1 = 0.0637	1000.1 ± 0.14	1515.2 ± 2.2
303.15 K, m1 = 0.0836	1001.46 ± 0.14	1517 ± 2.2
303.15 K, m1 = 0.1286	1004.57 ± 0.14	1521.1 ± 2.2
303.15 K, m1 = 0.1868	1008.52 ± 0.14	1526.2 ± 2.2
303.15 K, m1 = 0.2644	1013.64 ± 0.14	1532.9 ± 2.2
303.15 K, m1 = 0.3285	1017.84 ± 0.15	1538.5 ± 2.2
303.15 K, m1 = 0.3591	1019.76 ± 0.14	1540.8 ± 2.2
308.15 K, m1 = 0.0128	994.92 ± 0.17	1520.9 ± 2.2
308.15 K, m1 = 0.0148	995.066 ± 0.15	1521.2 ± 2.2
308.15 K, m1 = 0.0189	995.341 ± 0.15	1521.5 ± 2.2
308.15 K, m1 = 0.0253	995.793 ± 0.14	1522.1 ± 2.2
308.15 K, m1 = 0.0316	996.226 ± 0.14	1522.7 ± 2.2
308.15 K, m1 = 0.0444	997.101 ± 0.14	1523.7 ± 2.2
308.15 K, m1 = 0.0512	997.589 ± 0.15	1524.4 ± 2.2
308.15 K, m1 = 0.0637	998.449 ± 0.14	1525.5 ± 2.2
308.15 K, m1 = 0.0836	999.794 ± 0.14	1527.1 ± 2.2
308.15 K, m1 = 0.1286	1002.88 ± 0.15	1531 ± 2.2
308.15 K, m1 = 0.1868	1006.79 ± 0.15	1535.8 ± 2.2
308.15 K, m1 = 0.2644	1011.88 ± 0.15	1542.1 ± 2.2
308.15 K, m1 = 0.3285	1016.04 ± 0.15	1547.4 ± 2.2
308.15 K, m1 = 0.3591	1017.95 ± 0.15	1549.5 ± 2.2
313.15 K, m1 = 0.0128	993.096 ± 0.15	1530 ± 2.1
313.15 K, m1 = 0.0148	993.243 ± 0.15	1530.2 ± 2.1
313.15 K, m1 = 0.0189	993.515 ± 0.15	1530.5 ± 2.1
313.15 K, m1 = 0.0253	993.962 ± 0.15	1531.1 ± 2.1
313.15 K, m1 = 0.0316	994.391 ± 0.15	1531.6 ± 2.1
313.15 K, m1 = 0.0444	995.26 ± 0.15	1532.6 ± 2.1
313.15 K, m1 = 0.0512	995.745 ± 0.15	1533.2 ± 2.1
313.15 K, m1 = 0.0637	996.599 ± 0.15	1534.3 ± 2.1
313.15 K, m1 = 0.0836	997.933 ± 0.15	1535.8 ± 2.1
313.15 K, m1 = 0.1286	1001 ± 0.15	1539.5 ± 2.1
313.15 K, m1 = 0.1868	1004.88 ± 0.15	1543.9 ± 2.1
313.15 K, m1 = 0.2644	1009.93 ± 0.15	1549.9 ± 2.2
313.15 K, m1 = 0.3285	1014.06 ± 0.15	1554.9 ± 2.2
313.15 K, m1 = 0.3591	1015.96 ± 0.15	1556.8 ± 2.2

CCOC(=O)CC(=O)[O-].[K+] [potassium 3-ethoxy-3-oxopropanoate] + O
Conditions	mass density [kg/m3]	speed of sound [m/s]
288.15 K, m1 = 0.0116	999.92 ± 2	1468.2 ± 2.2
288.15 K, m1 = 0.0175	1000.34 ± 2	1469 ± 2.2
288.15 K, m1 = 0.0352	1001.57 ± 2	1471.2 ± 2.2
288.15 K, m1 = 0.0453	1002.29 ± 2	1472.6 ± 2.2
288.15 K, m1 = 0.0579	1003.14 ± 2	1474.2 ± 2.2
288.15 K, m1 = 0.1204	1007.45 ± 2	1482.2 ± 2.2
288.15 K, m1 = 0.18	1011.47 ± 2	1489.7 ± 2.2
288.15 K, m1 = 0.2369	1015.22 ± 2	1496.6 ± 2.2
288.15 K, m1 = 0.3076	1019.83 ± 2	1505.1 ± 2.2
293.15 K, m1 = 0.0116	999.013 ± 2	1484.1 ± 2.2
293.15 K, m1 = 0.0175	999.423 ± 2	1484.9 ± 2.2
293.15 K, m1 = 0.0352	1000.64 ± 2	1487 ± 2.2
293.15 K, m1 = 0.0453	1001.35 ± 2	1488.3 ± 2.2
293.15 K, m1 = 0.0579	1002.19 ± 2	1489.8 ± 2.2
293.15 K, m1 = 0.1204	1006.44 ± 2	1497.2 ± 2.2
293.15 K, m1 = 0.18	1010.41 ± 2	1504.2 ± 2.2
293.15 K, m1 = 0.2369	1014.11 ± 2	1510.6 ± 2.2
293.15 K, m1 = 0.3076	1018.65 ± 2	1518.7 ± 2.2
298.15 K, m1 = 0.0116	997.84 ± 2	1498.2 ± 2.2
298.15 K, m1 = 0.0175	998.247 ± 2	1499 ± 2.2
298.15 K, m1 = 0.0352	999.442 ± 2	1500.9 ± 2.2
298.15 K, m1 = 0.0453	1000.15 ± 2	1502.1 ± 2.2
298.15 K, m1 = 0.0579	1000.98 ± 2	1503.5 ± 2.2
298.15 K, m1 = 0.1204	1005.18 ± 2	1510.4 ± 2.2
298.15 K, m1 = 0.18	1009.1 ± 2	1516.9 ± 2.2
298.15 K, m1 = 0.2369	1012.76 ± 2	1523 ± 2.2
298.15 K, m1 = 0.3076	1017.25 ± 2	1530.5 ± 2.2
303.15 K, m1 = 0.0116	996.433 ± 2	1510.5 ± 2.2
303.15 K, m1 = 0.0175	996.835 ± 2	1511.2 ± 2.2
303.15 K, m1 = 0.0352	998.02 ± 2	1513 ± 2.2
303.15 K, m1 = 0.0453	998.716 ± 2	1514.1 ± 2.2
303.15 K, m1 = 0.0579	999.538 ± 2	1515.4 ± 2.2
303.15 K, m1 = 0.1204	1003.7 ± 2	1521.9 ± 2.2
303.15 K, m1 = 0.18	1007.58 ± 2	1528 ± 2.2
303.15 K, m1 = 0.2369	1011.19 ± 2	1533.6 ± 2.2
303.15 K, m1 = 0.3076	1015.64 ± 2	1540.6 ± 2.2
308.15 K, m1 = 0.0116	994.811 ± 2	1521 ± 2.2
308.15 K, m1 = 0.0175	995.206 ± 2	1521.7 ± 2.2
308.15 K, m1 = 0.0352	996.379 ± 2	1523.4 ± 2.2
308.15 K, m1 = 0.0453	997.071 ± 2	1524.4 ± 2.2
308.15 K, m1 = 0.0579	997.885 ± 2	1525.7 ± 2.2
308.15 K, m1 = 0.1204	1002 ± 2	1531.8 ± 2.2
308.15 K, m1 = 0.18	1005.85 ± 2	1537.4 ± 2.2
308.15 K, m1 = 0.2369	1009.43 ± 2	1542.7 ± 2.2
308.15 K, m1 = 0.3076	1013.83 ± 2	1549.1 ± 2.2
313.15 K, m1 = 0.0116	992.986 ± 2	1530 ± 2.1
313.15 K, m1 = 0.0175	993.379 ± 2	1530.7 ± 2.1
313.15 K, m1 = 0.0352	994.542 ± 2	1532.2 ± 2.1
313.15 K, m1 = 0.0453	995.228 ± 2	1533.2 ± 2.1
313.15 K, m1 = 0.0579	996.034 ± 2	1534.4 ± 2.1
313.15 K, m1 = 0.1204	1000.12 ± 2	1540.1 ± 2.1
313.15 K, m1 = 0.18	1003.93 ± 2	1545.4 ± 2.1
313.15 K, m1 = 0.2369	1007.47 ± 2	1550.3 ± 2.1
313.15 K, m1 = 0.3076	1011.84 ± 2	1556.3 ± 2.2
